Laboratory results from patent US20210308101A1, “METHODS OF TREATING FIBROMYALGIA” (Aptinyx Inc., priority 2019, published 2021).

Columns and labels:
Format in all cases: in vivo, human
[1] = system: subjects with fibromyalgia; experiment: PROMIS Physical Function short form
Text: As used herein, the “PROMIS Physical Function short form” is Patient Reported Outcomes Measurement Information System Physical Function Short Form. The PROMIS physical function short form version 1.0 12a measures the self-reported performance of physical activities including dexterity, walking or mobility and the ability to complete activities of daily living. All 12 questions are based on a 5-point numerical rating scale/Likert scale ranging from 1 to 5 with different categorical responses. Higher scores represent a better quality of life. The PROMIS physical function is made of the 2 following subdomains: • Walking Subdomain Score • If the question, “Can you walk 25 feet on a level surface (with or without support)?” is answered yes, then 6 questions will be assessed. Otherwise, the Walking Subdomain Score will not be calculated. 4 Questions with Scores Ranging from 1 (Unable to do) to 5 (Without any difficulty): • Are you able to walk on flat ground? • Are you able to walk up and down two steps? • Are you able to run at a fast pace for 2 miles? • Are you able to do yard work like raking leaves, weeding, or pushing a lawn mower? 2 Questions with Scores Ranging from 1 (Cannot do) to 5 (Not at all): • Does your health now limit you in doing strenuous activities such as backpacking, skiing, playing tennis, bicycling, or jogging? • Does your health now limit you in hiking a couple of miles on uneven surfaces, including hills? • Sum of those 6 Questions make up the Walking Subdomain Score Ranging from 6 to 30 • Other Physical Function Subdomain Score 5 Questions with Scores Ranging from 1 (Unable to do) to 5 (Without any difficulty): • Are you able to wash and dry your body? • Are you able to get in and out of bed? • Are you able to bend down and pick up clothing from the floor? • Are you able to push open a heavy door? • Are you able to reach and get down an object (such as a can of soup) from above your head? 1 Question with Scores Ranging from 1 (Cannot do) to 5 (Not at all): • Does your health now limit you in doing eight hours of physical labor? • Sum of those 6 Questions make up the Other Physical Function Subdomain Score Ranging from 6 to 30
If at least 3 questions have been answered within an individual subdomain, that subdomain score may be imputed if missing responses are present. […] A total score for PROMIS physical function was not calculated. The PROMIS physical function assessment was collected and analyzed at visits Screening, Day 1, Week 2, Week 4, Week 6, and Follow-up (Week 7). […] Additionally, the treatment group comparisons were analyzed using the paired t-test and nonparametric Wilcoxon signed-rank test. All PROMIS physical function data collected and the calculated subdomain scores at each visit were presented in a subject listing.

[2] = system: subjects with fibromyalgia; experiment: PROMISFM fatigue profile
Text: As used herein, the “PROMISFM” fatigue profile is Patient Reported Outcomes Measurement Information System Fibromyalgia, which is a 16-question instrument which has four 4-item short forms that examines the intensity of the impact of fatigue in social, cognitive and motivation subdomains. All 16 questions are based on a 5-point numerical rating scale/Likert scale ranging from 1 to 5, with different categorical responses. Lower scores represent a better quality of life. The PROMISFM fatigue profile is made of the 4 following subdomains: • Experience Subdomain Score 3 Questions with Scores Ranging from 1 (Not at All) to 5 (Very Much): • How tired did you feel on average? • How fatigued were you on average? • How exhausted were you on average? 1 Question with Scores Ranging from 1 (None) to 5 (Very Severe): • What was the level of your fatigue on most days? • Sum of those 4 Questions make up the Experience Subdomain Score Ranging from 4 to 20 • Social Impact Subdomain Score 2 Questions with Scores Ranging from 1 (Not at All) to 5 (Very Much): • To what degree did your fatigue interfere with your social activities? • To what degree did your fatigue interfere with your ability to engage in recreational activities? 2 Questions with Scores Ranging from 1 (Never) to 5 (Always): • How often did you have to limit your social activities because of your fatigue? • How often were you too tired to socialize with your friends? • Sum of those 4 Questions make up the Social Impact Subdomain Score Ranging from 4 to 20 • Motivational Impact Subdomain Score 2 Questions with Scores Ranging from 1 (Not at All) to 5 (Very Much): • To what degree did you have trouble starting things because of your fatigue? • To what degree did you have trouble finishing things because of your fatigue? […] 2 Questions with Scores Ranging from 1 (Never) to 5 (Always): • How often were you too tired to think clearly? • How often did your fatigue make you more forgetful? • Sum of those 4 Questions make up the Cognitive Impact Subdomain Score Ranging from 4 to 20
If at least 2 questions were answered within an individual subdomain, that subdomain score was imputed if missing responses are present. Each subdomain score was multiplied by 4/(number of questions answered) and rounded off to the nearest whole number. Otherwise, that subdomain score was set to missing. The total score was calculated by taking the sum of those 4 subdomains and ranged from 16 to 80. If any of the subdomains were missing, the total score was set to missing. The PROMISFM fatigue profile assessment was collected and analyzed at visits Screening, Day 1, Week 2, Week 4, Week 6, and Follow-up (Week 7). The observed total and subdomain scores, changes from baseline, and changes from treatment periods were summarized using descriptive statistics. Additionally, the treatment group comparisons were analyzed using the paired t-test and nonparametric Wilcoxon signed-rank test. All PROMISFM fatigue profile data collected and the calculated total and subdomain scores at each visit were presented in a subject listing.

[3] = system: subjects with fibromyalgia; experiment: Safety evaluation in the fibromyalgia study; settings: 20 mg then 200 mg PO QD, 2 weeks each
Text: Adverse events (AEs), vital signs, electrocardiograms, physical examinations, Columbia Suicide Rating Scales, and clinical laboratory samples were collected throughout the study.
• Adverse events • Vital sign measurements • Clinical laboratory test results • Electrocardiogram results • Physical examination findings • Columbia-Suicide Severity Rating Scale (C-SSRS)

[4] = Week 2 (placebo) to Week 4 (NYX-2925 20 mg)
[5] = Week 2 (placebo) to Week 6 (NYX-2925 200 mg), not statistically significant

CC(C)C(=O)N1CCC[C@]12CN([C@H](C(N)=O)[C@@H](C)O)C2=O [NYX-2925, (2S, 3R)-3-hydroxy-2-((R)-5-isobutyryl-1-oxo-2,5-diazaspiro[3.4]octan-2-yl)butanamide]
PROMIS Physical Function Other Physical Function Subdomain score, mean change [1, 4]: −0.1 | PROMIS Physical Function Walking Subdomain score, mean change [1, 4]: 0.2 | PROMIS Physical Function Other Physical Function Subdomain score, mean change [1, 5]: 0.4 | PROMIS Physical Function Walking Subdomain score, mean change [1, 5]: 0.5 | PROMISFM total fatigue profile score, change from baseline ([2]; NYX-2925 20 mg): reductions from baseline | PROMISFM Cognitive Impact Subdomain Score, changes from Week 2 (placebo) ([2]; NYX-2925 treatment at Weeks 4 and 6): not statistically significant | PROMISFM Fatigue Profile Total Score, mean change ([2]; Week 2 (placebo) to Week 4 (NYX-2925 20 mg), not statistically significant): −3.4 | PROMISFM Experience Subdomain Score, mean change ([2]; Week 2 (placebo) to Week 6 (NYX-2925 200 mg), p=0.0036): −2.2 | PROMISFM Fatigue Profile Total Score, mean change ([2]; Week 2 (placebo) to Week 6 (NYX-2925 200 mg), p=0.0049): −5.6 | PROMISFM Social Impact Subdomain Score, mean change ([2]; Week 2 (placebo) to Week 6 (NYX-2925 200 mg), p=0.0329): −1.4 | PROMISFM Motivational Impact Subdomain Score, mean change ([2]; Week 2 (placebo) to Week 6 (NYX-2925 200 mg), p=0.0490): −1.0 | PROMISFM Fatigue Profile total score, reduction from baseline ([2]; week six, after four weeks of NYX-2925, scale 16 to 80, n=21): 5.4 point | discontinuations due to treatment-emergent adverse events (TEAE) [3]: no discontinuations | safety and tolerability [3]: safe and well tolerated | serious adverse events [3]: No serious adverse events
